Measurements taken from PMC8414367, “(E)-7-Ethylidene-lithocholic Acid (7-ELCA) Is a Potent Dual Farnesoid X Receptor (FXR) Antagonist and GPBAR1 Agonist Inhibiting FXR-Induced Gene Expression in Hepatocytes and Stimulating Glucagon-like Peptide-1 Secretion From Enteroendocrine Cells” (Frontiers in Pharmacology, 2021).
Read-outs that look alike come from different tables or passages of the source.

Key:
human FXR [1] = target: T1, human FXR (Homo sapiens, UniProt Q96RI1); assay: FXR luciferase reporter gene assay (FXRE-luc) in HepG2 cells, antagonistic mode; format: cell-based; settings: for remaining activity at 10 µM / remaining activity at 40 µM: HepG2; for remaining activity at 10 µM: tested compound 10 µM
T1 sequence (Q96RI1 1-486): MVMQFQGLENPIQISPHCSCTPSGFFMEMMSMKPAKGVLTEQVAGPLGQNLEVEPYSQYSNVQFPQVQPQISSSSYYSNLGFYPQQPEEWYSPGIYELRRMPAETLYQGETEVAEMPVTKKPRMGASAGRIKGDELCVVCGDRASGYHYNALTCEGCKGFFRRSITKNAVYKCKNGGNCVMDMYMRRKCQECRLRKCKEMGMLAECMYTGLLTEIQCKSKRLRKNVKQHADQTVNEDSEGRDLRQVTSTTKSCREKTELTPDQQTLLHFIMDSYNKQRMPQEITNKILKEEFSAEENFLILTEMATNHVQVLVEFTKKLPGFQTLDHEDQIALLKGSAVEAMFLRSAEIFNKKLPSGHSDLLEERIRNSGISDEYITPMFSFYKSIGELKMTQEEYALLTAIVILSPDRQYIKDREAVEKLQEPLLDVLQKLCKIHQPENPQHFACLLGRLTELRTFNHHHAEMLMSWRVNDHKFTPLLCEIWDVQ
T1 sequence (P19793 1-462 partner): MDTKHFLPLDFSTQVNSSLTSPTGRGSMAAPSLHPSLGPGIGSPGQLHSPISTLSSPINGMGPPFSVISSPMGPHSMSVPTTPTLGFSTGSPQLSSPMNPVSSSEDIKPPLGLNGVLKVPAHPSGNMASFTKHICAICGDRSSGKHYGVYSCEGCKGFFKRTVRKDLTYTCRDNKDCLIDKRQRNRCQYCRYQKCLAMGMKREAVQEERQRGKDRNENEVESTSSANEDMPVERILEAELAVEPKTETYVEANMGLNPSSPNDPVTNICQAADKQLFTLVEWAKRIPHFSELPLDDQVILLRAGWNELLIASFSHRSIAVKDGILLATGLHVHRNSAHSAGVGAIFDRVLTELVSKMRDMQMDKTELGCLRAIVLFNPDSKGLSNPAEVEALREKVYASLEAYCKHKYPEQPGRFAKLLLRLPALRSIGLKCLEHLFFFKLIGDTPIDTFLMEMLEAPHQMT

GPBAR1 = target: T2, GPBAR1 (Homo sapiens, UniProt Q8TDU6); assay: GPBAR1 CRE-luc luciferase reporter assay in HepG2 cells; format: cell-based; settings: 10 µM, 5 h, LCA 10 µM set as 100%
T2 construct: host or cells: HepG2
T2 sequence (Q8TDU6 1-330): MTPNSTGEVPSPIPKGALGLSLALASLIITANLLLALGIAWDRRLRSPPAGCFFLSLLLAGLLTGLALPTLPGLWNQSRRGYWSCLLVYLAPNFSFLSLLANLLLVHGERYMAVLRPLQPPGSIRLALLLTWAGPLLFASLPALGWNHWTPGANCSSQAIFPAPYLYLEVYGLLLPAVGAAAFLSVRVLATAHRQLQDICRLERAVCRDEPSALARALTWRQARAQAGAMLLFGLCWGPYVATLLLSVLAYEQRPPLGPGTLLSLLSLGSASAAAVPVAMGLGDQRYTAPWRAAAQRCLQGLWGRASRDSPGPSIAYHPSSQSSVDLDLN
Description: (C) Effects of LCA and 7-ELCA (both at 10 µM) on intracellular generation of cAMP in differentiated NCI-H716 cells after 30 min treatment. The increase in cAMP level (ΔcAMP) is presented as the difference between cAMP concertation in the treated sample after subtraction of the cAMP in the nontreated control sample. (D) Concentration-response curves for activation of GPBAR1 by LCA and 7-ELCA. EC50 values were calculated using nonlinear fitting of concentration-response curves. […] GLP-1 was normalized to protein concentration and GPBAR1 mRNA expression to GAPDH mRNA. Data are presented as a fold to control nontreated (NT) samples. Forskolin (FSK, 10 µM) was used as a GPBAR1-independent activator of cAMP production.

AML12 = assay: MTS viability assay; format: cell-based, murine; settings: Mus musculus; AML12, 24 h, MTS; read-out: IC50 (µM), cell viability
Description: (§1) The potential cytotoxicity of 7-alkylated chenodeoxycholic acid derivatives were assessed in different human (HepG2, HepaRG and Huh7) and murine (AML12) hepatocyte-derived cell lines. For this purpose, hepatic cells were treated at increasing concentration for 24h and analyzed by MTS viability assay.
(§2) Table S2. Cell viability was determined using the Cell Titer 96 Aqueous One Solution Cell Proliferation Assay (MTS assay) after treatment with test compounds for 24 h in four different hepatic cell lines. Vehicle (0.1% DMSO) and background (10% SDS; v/v, toxic control) controls of cell viability were set to be 100% and 0%, respectively.

MTS viability assay [2] = format: cell-based, murine; settings: mouse, AML12 cells; AML12, 24 h, vehicle = 100%
Description: as §1, §2

human FXR [3] = target: T1, human FXR; assay: FXR luciferase reporter gene assay (FXRE-luc) in HepG2 cells, agonistic mode; format: cell-based; settings: 10 µM, 24 h, compound alone
Description: FIGURE 3 Interaction of 7-alkylated derivatives of CDCA and 7-ELCA with human FXR in luciferase reporter gene assays. HepG2 cells were transiently co-transfected with the luciferase FXRE-luc construct and with expression pSG5-hFXR, pSG5-hRXRα, and pRL-TK vectors. Cells were treated with indicated concentrations for 24 h alone (A), an agonistic mode) or with 1 µM OCA as an FXR agonist (B–F), an antagonistic mode). […] IC50 values were calculated using concentration-response curves nonlinear fitting in GraphPad software.

HepaRG = assay: MTS viability assay; format: cell-based, human; settings: Homo sapiens, 24 h, MTS, read-out: IC50 (µM), cell viability
Description: as §1, §2

HepG2 = assay: MTS viability assay; format: cell-based, human; settings: Homo sapiens; HepG2, 24 h, MTS; read-out: IC50 (µM), cell viability
Description: as §1, §2

Huh7 = assay: MTS viability assay; format: cell-based, human; settings: Homo sapiens, Huh-7; Huh7, 24 h, MTS; read-out: IC50 (µM), cell viability
Description: as §1, §2

MTS viability assay [4] = format: cell-based, human; settings: human, vehicle = 100%
Description: as §1, §2

FXR [5] = test system: FXR; parameters: method as in Sun et al., 2018; settings: ref Sun et al., 2018; read-out: IC50, FXR antagonist; cited from earlier work
[6] = test system: GPBAR1 mRNA, NCI-H716 cells; assay: GPBAR1 mRNA expression in differentiated NCI-H716 cells; format: cell-based, human; settings: 10 µM, 2 h
Description: FIGURE 8 Effects of 7-alkylated derivatives of CDCA and 7-ELCA on the membrane receptor GPBAR1. […]. (B) CRE-luc activation depends on the presence of GPBAR1. (C) Effects of LCA and 7-ELCA (both at 10 µM) on intracellular generation of cAMP in differentiated NCI-H716 cells after 30 min treatment. The increase in cAMP level (ΔcAMP) is presented as the difference between cAMP concertation in the treated sample after subtraction of the cAMP in the nontreated control sample. (D) Concentration-response curves for activation of GPBAR1 by LCA and 7-ELCA. EC50 values were calculated using nonlinear fitting of concentration-response curves. […] (G) 7-ELCA (10 µM) increases GLP-1 secretion in siRNA control but not in siRNA Gpbar1 transfected GLUTag cells after 1 h treatment. GLP-1 was normalized to protein concentration and GPBAR1 mRNA expression to GAPDH mRNA. Data are presented as a fold to control nontreated (NT) samples. Forskolin (FSK, 10 µM) was used as a GPBAR1-independent activator of cAMP production.

NCI-H716 cells = assay: GLP-1 secretion (ELISA) in differentiated NCI-H716 cells; format: cell-based, human; settings: 10 µM, 2 h
various cell lines = assay: MTS viability assay, summary over cell lines; format: cell-based; settings: 24 h, read-out: IC50, cellular viability
Description: as §1, §2

FXR [7] = test system: FXR; parameters: method as in Li et al., 2013; Sayin et al., 2013; settings: co-activator assay, ref Li et al., 2013, Sayin et al., read-out: IC50, FXR antagonist; cited from earlier work
[8] = GW4064 1 µM, read-out: relative response (%) to the model FXR ligand activation (set to be 100%), GW4064 1 µM

## C[C@H](CCC(=O)O)[C@H]1CCC2C3C(CC[C@@]21C)[C@@]1(C)CC[C@@H](O)C[C@H]1C[C@]3(O)C1CC1 (stereo partly drawn) [2i, 3α,7α-Dihydroxy-7β-cyclopropyl-5β-cholan-24-oic acid]
Human FXR [1]; [8]
  remaining activity at 10 µM: 88.4 ± 4.2%
Human FXR [1]; tested compound 40 µM, CDCA 20 µM, * = significant effect on cellular viability, read-out: relative response (%) to the model FXR ligand activation (set to be 100%), CDCA 20 µM
  remaining activity at 40 µM: 60 ± 5.8%
Human FXR [1]; tested compound 40 µM, GW4064 1 µM, * = significant effect on cellular viability, read-out: relative response (%) to the model FXR ligand activation (set to be 100%), GW4064 1 µM
  remaining activity at 40 µM: 60.5 ± 5.2%
GPBAR1
  CRE-luc activation compared to LCA (in words): comparable activities to LCA
other
  melting point: 78 to 82 °C
AML12
  IC50: > 200 µM
MTS viability assay [2]
  viability at 24 h, 10 µM: 108 ± 3.2%
Human FXR [3]
  FXR activation, agonistic mode (in words): significant inhibition of the FXR basal activation
HepaRG
  IC50: > 200 µM
HepG2
  IC50: 178.4 ± 1 µM
Huh7
  IC50: > 200 µM
MTS viability assay [4]; HepG2 cells, HepG2, 24 h
  viability at 24 h, 10 µM: 90.9 ± 0.9%
MTS viability assay [4]; HepaRG cells
  viability at 24 h, 10 µM: 133 ± 12.2%
MTS viability assay [4]; Huh7 cells, Huh7, 24 h
  viability at 24 h, 10 µM: 97.9 ± 10.4%

## C[C@H](CCC(=O)NCCS(=O)(=O)O)[C@H]1CC[C@H]2[C@@H]3[C@@H](O)C[C@@H]4C[C@H](O)CC[C@]4(C)[C@H]3CC[C@]12C [TUDCA, tauro-ursodeoxycholic acid]
FXR [5]
  IC50: 75.1 µM

## C[C@H](CCC(=O)NCC(=O)O)[C@H]1CC[C@H]2[C@@H]3[C@@H](O)C[C@@H]4C[C@H](O)CC[C@]4(C)[C@H]3CC[C@]12C [GUDCA]
FXR [5]
  IC50: 77.2 µM

## C[C@H](CCC(=O)O)[C@H]1CC[C@H]2[C@@H]3CC[C@@H]4C[C@H](O)CC[C@]4(C)[C@H]3CC[C@]12C [LCA, 3α-hydroxy-5β-cholan-24-oic acid, reference compound]
[6]
  GPBAR1 mRNA expression: stimulate
NCI-H716 cells
  GLP-1 secretion: stimulate GLP-1 secretion

## CCCCCCCCC[C@@]1(O)C[C@@H]2C[C@H](O)CC[C@]2(C)C2CC[C@@]3(C)C(CC[C@@H]3[C@H](C)CCC(=O)O)C21 (stereo partly drawn) [2k, 3α,7α-Dihydroxy-7β-nonyl-5β-cholan-24-oic acid]
Human FXR [1]; [8]
  remaining activity at 10 µM: 84.8 ± 1.8%
GPBAR1
  CRE-luc activation compared to LCA (in words): weak or no ability to act as agonists of GPBAR1
other
  melting point: 78 to 80 °C
AML12
  IC50: 12.5 µM
MTS viability assay [2]
  viability at 24 h, 10 µM: 68 ± 1.4%
Various cell lines
  IC50: ~15 µM
Human FXR [3]
  FXR activation, agonistic mode (in words): significant inhibition of the FXR basal activation
HepaRG
  IC50: 18.9 µM
HepG2
  IC50: ~10.9 µM
Huh7
  IC50: 21.8 µM
MTS viability assay [4]; HepG2 cells, HepG2, 24 h
  viability at 24 h, 10 µM: 79.8 ± 2.5%
MTS viability assay [4]; HepaRG cells
  viability at 24 h, 10 µM: 71.6 ± 2.8%
MTS viability assay [4]; Huh7 cells, Huh7, 24 h
  viability at 24 h, 10 µM: 118 ± 4.9%

## C[C@H](CCC(=O)NCCS(=O)(=O)O)[C@H]1CC[C@H]2[C@@H]3[C@H](O)[C@@H](O)[C@@H]4C[C@H](O)CC[C@]4(C)[C@H]3CC[C@]12C [tauro-α-MCA]
FXR [7]
  IC50: 28 µM

## C[C@H](CCC(=O)NCCS(=O)(=O)O)[C@H]1CC[C@H]2[C@@H]3[C@@H](O)[C@@H](O)[C@@H]4C[C@H](O)CC[C@]4(C)[C@H]3CC[C@]12C [Tβ-MCA, tauro-β-muricholic acid, reference compound]
FXR [7]
  IC50: 40 µM
Human FXR [1]; at 100 µM, with 1 µM OCA
  inhibition of FXR activation: 15%
Human FXR [1]; tested compound 40 µM, CDCA 20 µM, * = significant effect on cellular viability
  relative response (%) to the model FXR ligand activation (set to be 100%), CDCA 20 µM: 95.0±5.7%
Human FXR [1]; tested compound 40 µM, GW4064 1 µM, * = significant effect on cellular viability
  relative response (%) to the model FXR ligand activation (set to be 100%), GW4064 1 µM: 84.8±6.2%
